Reference: US4753938A, “Condensed as-triazine derivatives” (Richter Gedeon Vegyeszeti Gyar Rt., priority 1983, dated 1988)

Assays:
[1] = system: aconitine-induced ECG changes in rats; test: Antiarrhythmial effect on rats (aconitine, modified method of Marmo et al.); type: in vivo; conditions: aconitine 75 μg./kg. i.v.
Description: (6) Antiarrhythmial effect on rats
The test is carried out according to the modified method of Marmo et al. The test animals are narcotized with ethyl urethane (1.2 g./kg. i.p.). Aconitine is administered intravenously in the form of a bolus injection in a dose of 75 μg./kg. The changes of ECG are followed in standard II outlet 5 minutes after the administration of aconitine. The changes observed are evaluated with the aid of a scale from 0 to 5 points. The test compound is administered either intravenously 2 minutes before the addition of aconitine, or orally 1 hour before the aconitine administration.

[2] = system: tetrabenazine ptosis on mice; test: Antagonism of tetrabenazine ptosis on mice, p.o.; type: in vivo; conditions: for ED50: Mus musculus, po, 0.5 h, 50 mg./kg. tetrabenazine i.p. 30 minutes later
Description: (§1) (2) Antagonism of Tetrabenazine ptosis on mice and rats, p.o. […] The results are evaluated as follows: on the basis of all the measured data an average ptosis is calculated for each group and the deviation from the average of the control group is expressed in percents (inhibition). The ED50 values are calculated from the data thus obtained.

reserpine ptosis on mice = test: Antagonism of reserpine ptosis on mice, p.o.; type: in vivo; conditions: for ED50: Mus musculus, po, 1 h, 60 minutes after 6 mg./kg. reserpine s.c.
Description: (3) Antagonism of reserpine ptosis on mice, p.o. Animal groups consisting of 10 mice each are treated subcutaneously with 6 mg./kg. of reserpine. The test compound is administered orally after 60 minutes. The animals showing a ptosis are counted after 60 and 120 minutes. The evaluation is carried out as described in connection with the previous ptosis test No. 2.

[3] = system: yohimbine toxicity on mice; test: Potentiation of yohimbine toxicity on mice (method of Quinton); type: in vivo; conditions: for ED50: Mus musculus, ip, read-out: ED50, potentiation of yohimbine toxicity; for Ther. index, potentiation of yohimbine toxicity: mice
Description: (5) Potentiation of yohimbine toxicity on mice
The tests are carried out according to the method of Quinton. Animal groups consisting of 10 mice each are treated with the test compound. After an hour a sublethal dose of yohimbine is administered intraperitoneally at a rate of 20 ml./kg. The killed animals are counted after 1 and 24 hours, respectively.

[4] = Acute toxicity on mice, oral (LD50, Litchfield-Wilcoxon, 7 days observation); conditions: mouse, in vivo
Description: (1) Acute toxicity on mice
The test is carried out on male and female white mice belonging to the CFLP strain and weighing 18-22 g. The test compound is administered orally and the animals are observed for a period of 7 days. In the groups for each dose half of the animals are male and the other half are female. The animals are kept in a plastic box (39×12×12 cm) on scrapings litter at room temperature. The mice receive standard fodder and tap water ad libitum. The toxicity data are determined by the method of Litchfield-Wilcoxon.
The test compounds are used in a suspension formed with 0.5% carboxymethyl cellulose.

reserpine ptosis on rats = test: Antagonism of reserpine ptosis on rats, p.o.; type: in vivo; conditions: Rattus norvegicus, po, 1 h, 60 minutes after 2.5 mg./kg. reserpine s.c.
Description: (4) Antagonism of reserpine ptosis on rats, p.o. […] The animals showing ptosis are counted until the effect decreases. The evaluation is carried out as described in connection with the previous ptosis test (test 2).

[5] = system: tremorine-induced tremor in mice; test: Antitremorine effect on mice; type: in vivo
Description: (7) Antitremorine effect on mice 20 mg./kg. of tremorine are administered i.p. to mice whereupon after 45 minutes the induced characteristic tremor is registered. The test compounds are administered orally 1 hour before the addition of tremorine.

[6] = system: tetrabenazine ptosis on rats; test: Antagonism of tetrabenazine ptosis on rats, p.o.; type: in vivo; conditions: Rattus norvegicus, po
Description: as §1

## CCN(CC)CC(=O)Nc1c(C)cccc1C [Lidocain, α-diethylamino-2,6-dimethyl-acetanilide, reference compound]
[1]; dose 4 mg./kg.
  Inhibition, antiarrhythmial effect: 23.4%

## CN(C)CCC=C1c2ccccc2CCc2ccccc21 [Amitriptyline, N,N-dimethyl-3-[dibenzo[a,d]-cycloheptadiene-5-ylidene]propylamine, reference compound]
[2]
  Ther. index, tetrabenazine ptosis: 19
Reserpine ptosis on mice
  Ther. index, reserpine ptosis: 3.45
  ED50: 65 mg/kg
[3]
  ED50: 12.5 mg/kg
  Ther. index, potentiation of yohimbine toxicity: 18

## O=c1nc(-c2ccc(Cl)cc2)c2c3ccccc3cc[n+]2[n-]1 [Compound C, 1-(4-chloro-phenyl)-as-triazino[6,1-a]isoquinoline-5-ium-2-(1H)-ide-3-one]
[4]; mice, p.o., 7 days observation
  LD50 at 168 h: 2000 mg/kg
[2]
  Ther. index, tetrabenazine ptosis: 87
  ED50: 23 mg/kg

## Clc1ccc(-c2ncn[n+]3ccc4ccccc4c23)cc1 [Reference compound D, 1-(4-chloro-phenyl)-as-triazino[6,1-a]isochinolinium-bromide, reference compound]
[2]
  Ther. index, tetrabenazine ptosis: 188
Reserpine ptosis on mice
  Ther. index, reserpine ptosis: below 5.0
  ED50: > 120 mg/kg
Reserpine ptosis on rats
  ED50: 60 mg/kg
[5]; p.o. 1 hour before tremorine 20 mg./kg. i.p.
  ED50, antitremorine effect: inactive

## COC1(c2ccc(Cl)cc2)[N-]C=N[n+]2ccc3ccccc3c21 (stereo not drawn) [Compound B, 1-(4-chloro-phenyl)-1-methoxy-as-triazino[6,1-a]isoquinoline-5-ium-2-(1H)-ide]
[4]
  LD50 at 168 h: 420 mg/kg
[2]
  Ther. index, tetrabenazine ptosis: 1680
  ED50: 0.25 mg/kg
[6]
  ED50: 0.6 mg/kg
Reserpine ptosis on mice
  Ther. index, reserpine ptosis: 280.0
  ED50: 1.5 mg/kg
Reserpine ptosis on rats
  ED50: 34 mg/kg
[3]
  ED50: 1.2 mg/kg
  Ther. index, potentiation of yohimbine toxicity: 350
[1]; dose 1 mg./kg.
  Inhibition, antiarrhythmial effect: 44.3%
[5]; Mus musculus, po, p.o. 1 hour before tremorine 20 mg./kg. i.p.
  ED50: 40 mg/kg
[5]; p.o.
  Ther. index, antitremorine effect: 10.5

## OC1(c2ccc(Cl)cc2)[N-]C=N[n+]2ccc3ccccc3c21 (stereo not drawn) [Compound A, 1-(4-chloro-phenyl)-1-hydroxy-as-triazino[6,1-a]isoquinoline-5-ium-2-(1H)-ide]
[4]
  LD50 at 168 h: 550 mg/kg
[2]
  Ther. index, tetrabenazine ptosis: 3667
  ED50: 0.15 mg/kg
[6]
  ED50: 7 mg/kg
Reserpine ptosis on mice
  Ther. index, reserpine ptosis: 19.6
  ED50: 28 mg/kg
Reserpine ptosis on rats
  ED50: 28 mg/kg
[3]
  ED50: 5 mg/kg
  Ther. index, potentiation of yohimbine toxicity: 110
[1]; dose 1 mg./kg.
  Inhibition, antiarrhythmial effect: 39.6%
